Test results taken from US8367666B2 (priority 2004, dated 2013).
Read-outs that look alike come from different tables or passages of the source.

Experiments:
CB2 receptor [1] = target: T1, CB2 receptor (Homo sapiens, UniProt P34972); assay: cAMP formation inhibition experiment through a cannabinoid receptor (forskolin stimulation), CB2; format: cell-based; set-up: expressed in transfected cells; host or cells: CHO cells
CB1 receptor [2] = target: T2, CB1 receptor (Homo sapiens, UniProt P21554); assay: Human cannabinoid receptor bonding inhibition test ([3H]CP55940), CB1; format: binding; set-up: expressed in transfected cells; membrane fraction
T2 sequence (P21554 whole entry): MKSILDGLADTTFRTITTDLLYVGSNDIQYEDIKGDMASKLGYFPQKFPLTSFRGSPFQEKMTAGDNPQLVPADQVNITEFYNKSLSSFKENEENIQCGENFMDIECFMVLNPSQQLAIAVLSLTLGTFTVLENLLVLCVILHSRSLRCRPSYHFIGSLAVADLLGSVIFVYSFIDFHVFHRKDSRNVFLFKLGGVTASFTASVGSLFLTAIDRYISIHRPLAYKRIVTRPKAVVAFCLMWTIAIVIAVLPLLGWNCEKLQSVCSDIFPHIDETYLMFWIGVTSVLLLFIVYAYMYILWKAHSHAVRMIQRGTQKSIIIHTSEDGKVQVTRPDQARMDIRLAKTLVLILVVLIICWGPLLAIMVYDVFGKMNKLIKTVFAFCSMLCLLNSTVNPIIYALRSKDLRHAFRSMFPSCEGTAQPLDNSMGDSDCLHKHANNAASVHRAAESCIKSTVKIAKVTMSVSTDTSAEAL

CB2 receptor [3] = target: T1, CB2 receptor; assay: Human cannabinoid receptor bonding inhibition test ([3H]CP55940), CB2; format: binding; set-up: expressed in transfected cells; membrane fraction
[4] = system: scratching action induced by Compound 48/80; assay: Anti-pruritic activity test by application (Compound 48/80 scratching); format: in vivo, mouse (Crj:CD-1 (ICR)); settings: Mus musculus, topical, read-out: Itching inhibition ratio % (Concentration %)
Protocol: 1) Preparation of the compound and the reagent: The compound being tested was dissolved in acetone (SIGMA). Compound 48/80 (SIGMA) was dissolved in physiological saline (m by Otsuka Pharmaceutical Co., Ltd.) so as to be 60 μg/mL.
2) Animals: Female Crj: CD-1 (ICR) mice of 6 to 10 age in week (Japan Charles Liver) were used as laboratory animals. The animals were fed in the barrier breeding room where […] in room temperature, 30 to 70% in humidity, and the light and shade condition existed every 12 hours and feed (CE-2: Japan Crea) and the drinking water were freely taken. The hair of dorsa (from the cervical region of the back to the center of the back) of the animals were cut with a hair clipper two days or more before the anti-pruritic activity is evaluated, those with no wound, rubefaction, and thickening of the skin on the dehaired part were chosen and supplied to the experiment on the day of the evaluation. 3) Evaluation procedures: The acetone solution of the compound being tested was applied by 50 μL on the dehaired parts of the mice with a pipeter. On the mice of the control group, 50 μL of acetone was applied. The 15 minutes later, 50 μL (corresponding to 3 μg) of Compound 48/80 solution was injected intradermally in the compound applied parts with the use of a injector (Terumo Corporation), the mice were individually put in five observation cages made of acrylate resin at once, and the scratching action (action of scratching the injection part by the hind leg) frequency during 30 minutes was measured. The evaluation was carried out in one group of 5 to 7 mice. 4) Data processing: The experiment results were shown by the mean values. The test of the significant difference of the compound applying group to the control group was conducted with Welch's t-test, and p<0.05 was assumed to be significant.

CB1 receptor [5] = target: T2, CB1 receptor; assay: cAMP formation inhibition experiment through a cannabinoid receptor (forskolin stimulation), CB1; format: cell-based; set-up: expressed in transfected cells; host or cells: CHO cells
Protocol: A compound being tested was added in the CHO cell which had mad human CB1 or CB2 receptor reveal and incubated for 15 minutes, and then forskolin (the final concentration 4 μM, and manufactured by SIGMA Corp.) was added and the mixture was incubated for 20 minutes. After the reaction had been stopped by adding 1M hydrochloric acid, the amount of cAMP in the supernatant was measured with the use of Cyclic AMP kit (made by the CIS Diagnostic Corp.).

[6] = read-out: Agonist activity (nM) CB1
[7] = [3H]CP55940 0.5 nM, membrane preparation of CHO cells expressing CB1, Ki calculated from IC50, read-out: Binding activity (nM) CB1
[8] = [3H]CP55940 0.5 nM, membrane preparation of CHO cells expressing CB2, Ki calculated from IC50, read-out: Binding activity (nM) CB2

T1 sequence (P34972 whole entry): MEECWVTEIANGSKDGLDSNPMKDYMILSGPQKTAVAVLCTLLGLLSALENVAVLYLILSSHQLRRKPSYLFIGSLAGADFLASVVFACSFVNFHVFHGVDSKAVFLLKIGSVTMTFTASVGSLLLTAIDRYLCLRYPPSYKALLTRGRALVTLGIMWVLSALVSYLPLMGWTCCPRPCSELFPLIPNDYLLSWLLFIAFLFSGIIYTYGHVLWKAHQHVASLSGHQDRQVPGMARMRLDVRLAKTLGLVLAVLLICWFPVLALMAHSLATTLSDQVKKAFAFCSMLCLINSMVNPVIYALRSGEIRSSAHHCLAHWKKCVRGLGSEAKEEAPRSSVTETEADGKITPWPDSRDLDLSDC

Row | SMILES | IC50 (CB2 receptor [1]) [nM] | Ki (CB1 receptor [2]) [nM] | Ki (CB2 receptor [3]) [nM] | IC50 (CB1 receptor [5]; [6]) [nM] | inhibition in vivo at 3 % [4] [%] | further results
1 | CC(C)(NC(=O)c1cc2c(n(CC3CCCCC3)c1=O)CCCCCC2)C(N)=O [Compound I-002] | 4.4 | 48 | 7.1 | 11 |  | inhibition in vivo at 2.5 % [4]: 68%
2 | CCc1c(C)cc(C(=O)N[C@H](C(=O)NC(CO)CO)C(C)(C)C)c(=O)n1CC1CCCCC1 [Compound I-038] | < 2 | 7.1 | < 2 | 34 | 67 | 
3 | CC(C)(NC(=O)c1cc2c(n(CC3CCCCC3)c1=O)CCCCCC2)C(=O)N1CCC(NS(=O)(=O)C(C)(C)C)CC1 [Compound I-048] | 17 | 118 | 2.6 | 328 | 58 | 
4 | CC(C)(NC(=O)c1cc2c(n(CC3CCCCC3)c1=O)CCCCCC2)C(=O)NCC(N)=O [Compound I-054] | 15 |  |  | 51 |  | Ki (CB1 receptor [2]; [7]): 11 nM; Ki (CB2 receptor [3]; [8]): 6 nM; inhibition in vivo at 2 % [4]: 63%
5 | COC(=O)C(C)(C)NC(=O)c1cc2c(n(CC3CCCCC3)c1=O)CCCCCC2 [Compound I-084, methyl 2-[(1-cyclohexylmethyl-2-oxo-1,2,5,6,7,8,9,10-octahydro-cycloocta[b]pyridine-3-carbonyl]-amino}-2-methyl-propionate] | < 2 | < 2 | < 2 | < 2 |  | inhibition in vivo at 0.1 % [4]: 60%
6 | CC[C@@H](C)[C@H](NC(=O)c1cc(C)c(C)n(CC2CCCCC2)c1=O)C(=O)OC [Compound I-089] | < 2 | < 2 | < 2 | < 2 |  | inhibition in vivo at 0.5 % [4]: 65%
7 | COC(=O)[C@@H](NC(=O)c1cc(C)c(C)n(Cc2ccc(F)cc2)c1=O)C(C)C [Compound I-094] | < 2 | < 2 | < 2 | 9 |  | inhibition in vivo at 0.5 % [4]: 60%
8 | COC(=O)[C@@H](NC(=O)c1cc2c(n(Cc3ccc(F)cc3)c1=O)CCCCCC2)C(C)(C)C [Compound I-263] |  | < 2 | < 2 | < 2 |  | inhibition in vivo at 1.5 % [4]: 57%
9 | COC(=O)[C@@H](NC(=O)c1cc2c(n(CCCC#N)c1=O)CCCCCC2)C(C)C [Compound I-266] |  | 12 | < 2 | 12 |  | inhibition in vivo at 2 % [4]: 64%
10 | CCOC(=O)C(C)(C)NC(=O)c1cc2c(n(CC3CCCCC3)c1=O)CCCCCC2 [Compound I-300] |  | < 2 | < 2 | < 2 |  | inhibition in vivo at 0.5 % [4]: 41%
11 | CC(C)OC(=O)C(C)(C)NC(=O)c1cc2c(n(CC3CCCCC3)c1=O)CCCCCC2 [Compound I-301] |  | < 2 | < 2 | < 2 |  | inhibition in vivo at 0.5 % [4]: 39%
12 | CC(C)(NC(=O)c1cc2c(n(CC3CCCCC3)c1=O)CCCCCC2)C(=O)OCC(O)CO (centres unmarked) [Compound I-305] |  | < 2 | < 2 | < 2 |  | inhibition in vivo at 0.5 % [4]: 61%
13 | COCOC(=O)C(C)(C)NC(=O)c1cc2c(n(CC3CCCCC3)c1=O)CCCCCC2 [Compound I-306] |  | < 2 | < 2 | < 2 |  | inhibition in vivo at 0.5 % [4]: 83%
14 | O=C(N[C@H](C(=O)O)c1ccccc1)c1cc2c(n(CC3CCCCC3)c1=O)CCCCCC2 [Compound I-402] |  |  | < 2 |  | 59 | IC50 (CB2 receptor [1]; inhibition of forskolin (4 μM)-stimulated cAMP formation, CHO cells expressing human CB2, read-out: Agonist activity (nM) CB2): 5.7 nM; Ki (CB1 receptor [2]; [7]): 34 nM
15 | CCCCn1c(CCC)c(CC)cc(C(=O)NC2(C(=O)O)CCCCC2)c1=O [Compound I-411] |  |  |  |  |  | IC50 (CB2 receptor [1]; read-out: Agonist activity (nM) CB2): 556 nM; Ki (CB1 receptor [2]; read-out: Binding activity (nM) CB1): > 2000 nM; Ki (CB2 receptor [3]; read-out: Binding activity (nM) CB2): 382 nM; inhibition in vivo at 0.5 % [4]: 80%; IC50 (CB1 receptor [5]): > 2000 nM
16 | CC(C)CCn1c2c(cc(C(=O)N[C@@H](C(=O)O)c3ccccc3)c1=O)CCCCCC2 [Compound I-424] | 5.9 |  | 3 |  | 62 | Ki (CB1 receptor [2]; [7]): 357 nM; IC50 (CB1 receptor [5]): > 2000 nM

Row | SMILES | IC50 (CB2 receptor [1]) [nM] | Ki (CB1 receptor [2]) [nM] | Ki (CB2 receptor [3]) [nM] | IC50 (CB1 receptor [5]; [6]) [nM] | inhibition in vivo at 3 % [4] [%] | further results
17 | O=C(NC(C(=O)O)c1ccco1)c1cc2c(n(CC3CCCCC3)c1=O)CCCCCC2 (centres unmarked) [Compound I-530] |  | 7 | < 2 | 305 |  | inhibition in vivo at 2 % [4]: 74%
18 | CC(C)(NC(=O)c1cc2c(n(CC3CCCCC3)c1=O)CCCCCC2)C(=O)Nc1ccc(NS(C)(=O)=O)cc1 [Compound I-533] | < 2 | 21 | < 2 | > 2000 | 73 | 
19 | CC(C)CCn1c2c(cc(C(=O)NC(C(=O)O)c3cccs3)c1=O)CCCCCC2 (centres unmarked) [Compound I-551] | < 2 | 50 | 2.2 | 135 |  | inhibition in vivo at 2 % [4]: 51%
20 | CC(C)(NC(=O)c1cc2c(n(CC3CCCCC3)c1=O)CCCCCC2)C(=O)NNC(=O)c1cccnc1 [Compound I-556] | 3.5 | 8.1 | < 2 | 357 | 76 | 
21 | CC(C)(C)OC(=O)NC1CCN(C(=O)C(C)(C)NC(=O)c2cc3c(n(CC4CCCCC4)c2=O)CCCCCC3)CC1 [Compound I-570] | 12 | 68 | 11 | 709 | 84 | 
22 | CC(C)(NC(=O)c1cc2c(n(CC3CCCCC3)c1=O)CCCCCC2)C(=O)N1CCC(NS(C)(=O)=O)CC1 [Compound I-572] | 2.4 |  |  | 397 |  | Ki (CB1 receptor [2]; [7]): 39 nM; Ki (CB2 receptor [3]; [8]): 4.4 nM; inhibition in vivo at 1 % [4]: 97%
23 | CC(=O)N1CCN(C(=O)C(C)(C)NC(=O)c2cc3c(n(CC4CCCCC4)c2=O)CCCCCC3)CC1 [Compound I-579] | 27 |  | 7.3 |  | 99 | Ki (CB1 receptor [2]; [7]): 158 nM; IC50 (CB1 receptor [5]): 431 nM
24 | CC(C)(NC(=O)c1cc2c(n(CC3CCCCC3)c1=O)CCCCCC2)C(=O)C1CCCC(C(N)=O)N1 (centres unmarked) [Compound I-580] | 48 | 24 | 7.4 | 41 | 98 | 
25 | CC(C)(CNCCC(N)=O)NC(=O)c1cc2c(n(CC3CCCCC3)c1=O)CCCCCC2 [Compound I-588] | 5.7 | 41 | 10 | 72 |  | inhibition in vivo at 1 % [4]: 81%
26 | CNC(=O)CNC(=O)C(C)(C)NC(=O)c1cc2c(n(CC3CCCCC3)c1=O)CCCCCC2 [Compound I-590] | 2.4 | 66 | 16 | 51 | 75 | 
27 | CCNC(=O)C1CCCN(C(=O)C(C)(C)NC(=O)c2cc3c(n(CC4CCCCC4)c2=O)CCCCCC3)C1 (centres unmarked) [Compound I-595] | 30 |  | 9.5 |  | 108 | Ki (CB1 receptor [2]; [7]): 354 nM; IC50 (CB1 receptor [5]): 1210 nM
28 | CCS(=O)(=O)NNC(=O)C(C)(C)NC(=O)c1cc2c(n(CC3CCCCC3)c1=O)CCCCCC2 [Compound I-596] | 30 |  | 22 |  | 60 | Ki (CB1 receptor [2]; [7]): 341 nM; IC50 (CB1 receptor [5]): 312 nM
29 | CC(C)NC(=O)NC1CCN(C(=O)C(C)(C)NC(=O)c2cc3c(n(CC4CCCCC4)c2=O)CCCCCC3)CC1 [Compound I-599] | 13 | 37 | 4 | 37 |  | inhibition in vivo at 0.5 % [4]: 67%
30 | CC(C)(NC(=O)c1cc2c(n(CC3CCCCC3)c1=O)CCCCCC2)C(=O)N1CCC(C(=O)N2CCCCC2)CC1 [Compound I-601] | 6.3 | 47 | 3.9 | 186 |  | inhibition in vivo at 1 % [4]: 67%
31 | CCOC(=O)C1CCCCC1NC(=O)c1cc2c(n(CCCNC(C)=O)c1=O)CCCCCC2 (centres unmarked) [II-031] | 9.9 | > 2000 | 2.5 |  |  | inhibition in vivo at 2 % [4]: 55%
